Experimental data taken from ChEMBL document CHEMBL5584313, “Design and Synthesis of 7-Oxabicyclo[2.2.1]heptane-2,3-dicarboxylic Acid Derivatives as PP5 Inhibitors To Reverse Temozolomide Resistance in Glioblastoma Multiforme” (J Med Chem, 2024).
≈ marks a conversion by molar mass, not a printed value. Calls of active or inactive are those of the source. No cut-off for these calls is given here.

Experiments:
[1] = tested on: U-87MG ATCC; assay: Upregulation of p53 expression in human U-87 MG cells at 6.25 to 100 uM after 24 hrs by Western blotting analysis; format: functional, cell-based; conditions: dose 6.25-100 µM
[2] = Tmax in Sprague-Dawley rat at 25 mg/kg, po measured upto 24 hrs by LC-MS/MS method; format: ADME, organism-based; conditions: in vivo
[3] = tested on: U-87 MG; assay: Synergistic antiproliferative activity against human U-87 MG cells at 10 uM in presence of TMZ; format: functional, cell-based; conditions: U-87MG ATCC
[4] = Toxicity in BALB/c nude mouse xenografted with U-87 MG cells assessed as liver damage at 1.5 to 3 mg/kg, po administered every other day for 18 days in presence of 40 mg/kg TMZ by H and E staining based assay; format: organism-based; conditions: in vivo, 432 h, dose 1.5-3 mg/kg, time 18 day
[5] = tested on: U-87 MG; assay: Antitumor activity against human U-87 MG cells xenografted in BALB/c nude mouse assessed as tumor growth retardation at 3 mg/kg, po administered every other day for 18 days; format: functional, organism-based; conditions: U-87MG ATCC, time 18.0 day
[6] = tested on: HCT-116; assay: Cytotoxicity against human HCT-116 cells incubated for 48 hrs by CCK8 assay; format: functional, cell-based; conditions: HCT-116, 48 h
[7] = Tmax in Sprague-Dawley rat at 5 mg/kg, iv measured upto 24 hrs by LC-MS/MS method; format: ADME, organism-based; conditions: in vivo
[8] = Toxicity in BALB/c nude mouse xenografted with U-87 MG cells assessed as kidney damage at 1.5 to 3 mg/kg, po administered every other day for 18 days in presence of 40 mg/kg TMZ by H and E staining based assay; format: organism-based; conditions: in vivo, 432 h, dose 1.5-3 mg/kg, time 18 day
[9] = Aqueous solubility of compound by HPLC method; format: physicochemical; conditions: water
[10] = tested on: U-87 MG; assay: Antitumor activity against human U-87 MG cells xenografted in BALB/c nude mouse assessed as tumor growth inhibition at 3 mg/kg, po administered every other day for 18 days in presence of 40 mg/kg TMZ; format: functional, U-87MG ATCC; conditions: 432 h, time 18 day, read-out: TGI
[11] = Toxicity in BALB/c nude mouse xenografted with U-87 MG cells assessed as spleen damage at 1.5 to 3 mg/kg, po administered every other day for 18 days in presence of 40 mg/kg TMZ by H and E staining based assay; format: organism-based; conditions: in vivo, 432 h, dose 1.5-3 mg/kg, time 18 day
[12] = tested on: U-87MG ATCC; assay: Downregulation of MGMT expression in human U-87 MG cells at 25 uM incubated for 24 hrs in presence of TMZ by Western blotting analysis; format: functional, cell-based
[13] = MRT(0 to infinity) in Sprague-Dawley rat at 5 mg/kg, iv measured upto 24 hrs by LC-MS/MS method; format: ADME, organism-based; conditions: in vivo
[14] = Stability of compound in stimulated gastric fluid assessed as remaining compound after 24 hrs by HPLC method; format: ADME; conditions: simulated gastric fluid, read-out: Stability
[15] = tested on: U-87MG ATCC; assay: Upregulation of p27 expression in human U-87 MG cells at 6.25 to 100 uM after 24 hrs by Western blotting analysis; format: functional, cell-based; conditions: dose 6.25-100 µM
[16] = tested on: U-87 MG; assay: Induction of apoptosis in human U-87 MG cells assessed as G0/G1 phase cells at 5 uM incubated for 24 hrs by propidium iodide staining based flow cytometry analysis (reference value: 58.8%); format: functional, U-87MG ATCC
[17] = Aqueous stability of compound assessed as compound remaining measured at 240 mins by HPLC assay; format: physicochemical; conditions: aqueous solution, read-out: Stability
[18] = tested on: U-87MG ATCC; assay: Upregulation of p53 expression in human U-87 MG cells at 25 uM after 24 hrs in presence TMZ by Western blotting analysis; format: functional, cell-based
[19] = tested on: U-87 MG; assay: Antitumor activity against human U-87 MG cells xenografted in BALB/c nude mouse assessed as tumor growth inhibition at 1.5 mg/kg, po administered every other day for 18 days in presence of 40 mg/kg TMZ; format: functional, U-87MG ATCC; conditions: 432 h, time 18 day, read-out: TGI
[20] = Toxicity in BALB/c nude mouse xenografted with U-87 MG cells assessed as lung damage at 1.5 to 3 mg/kg, po administered every other day for 18 days in presence of 40 mg/kg TMZ by H and E staining based assay; format: organism-based; conditions: in vivo, 432 h, dose 1.5-3 mg/kg, time 18 day
[21] = species on record: Homo sapiens; assay: Selectivity ratio of IC50 for PP1 (unknown origin ) to IC50 for PP5 (unknown origin)
[22] = Stability of compound in stimulated intestinal fluid assessed as remaining compound after 24 hrs by HPLC method; format: ADME; conditions: simulated intestinal fluid, read-out: Stability
[23] = Apparent clearance in Sprague-Dawley rat at 5 mg/kg, iv measured upto 24 hrs by LC-MS/MS method; format: ADME, organism-based; conditions: in vivo, read-out: CL(app) (converted)
[24] = Toxicity in BALB/c nude mouse xenografted with U-87 MG cells assessed as change in body weight at 1.5 to 3 mg/kg, po administered every other day for 18 days in presence of 40 mg/kg TMZ; format: organism-based; conditions: in vivo, 432 h, dose 1.5-3 mg/kg, time 18 day
[25] = Stability of compound in water assessed as remaining compound after 24 hrs; format: physicochemical; conditions: read-out: Stability
[26] = tested on: U-87 MG; assay: Synergistic antiproliferative activity against human U-87 MG cells in presence of TMZ; format: functional, cell-based, U-87MG ATCC
[27] = MRT(0 to infinity) in Sprague-Dawley rat at 25 mg/kg, po measured upto 24 hrs by LC-MS/MS method; format: ADME, organism-based; conditions: in vivo
[28] = tested on: U-87MG ATCC; assay: Downregulation of MGMT expression in human U-87 MG cells at 25 uM incubated for 24 hrs by Western blotting analysis; format: functional, cell-based
[29] = AUC(0 to infinity) in Sprague-Dawley rat at 25 mg/kg, po measured upto 24 hrs by LC-MS/MS method; format: ADME, organism-based; conditions: in vivo
[30] = tested on: U-87 MG; assay: Antitumor activity against human U-87 MG cells xenografted in BALB/c nude mouse assessed as reduction in tumor weight at 3 mg/kg, po administered every other day for 18 days in presence of 40 mg/kg TMZ; format: functional, organism-based; conditions: U-87MG ATCC, time 18.0 day
[31] = tested on: U-87 MG; assay: Antitumor activity against human U-87 MG cells xenografted in BALB/c nude mouse assessed as increase in p53 expression at 3 mg/kg, po measured after 4 hrs by Western blotting analysis; format: functional, organism-based; conditions: U-87MG ATCC
[32] = tested on: A549; assay: Cytotoxicity against human A549 cells incubated for 48 hrs by CCK8 assay; format: functional, cell-based; conditions: A549, 48 h
[33] = Oral bioavailability in Sprague-Dawley rat at 25 mg/kg measured upto 24 hrs by LC-MS/MS method; format: ADME, organism-based; conditions: in vivo
[34] = tested on: U-87 MG; assay: Antitumor activity against human U-87 MG cells xenografted in BALB/c nude mouse assessed as reduction in MGMT expression at 1.5 to 3 mg/kg, po measured after 4 hrs in presence of 40 mg/kg TMZ by Western blotting analysis; format: functional, organism-based; conditions: U-87MG ATCC, dose 1.5-3 mg/kg
[35] = Cytotoxicity against HEK293T cells incubated for 48 hrs by CCK8 assay; format: toxicity, cell-based, HEK-293T; conditions: human
[36] = tested on: U-87MG ATCC; assay: Upregulation of p21 expression in human U-87 MG cells at 6.25 to 100 uM after 24 hrs by Western blotting analysis; format: functional, cell-based; conditions: dose 6.25-100 µM
[37] = tested on: U-87 MG; assay: Antitumor activity against human U-87 MG cells xenografted in BALB/c nude mouse assessed as increase in p53 expression at 1.5 to 3 mg/kg, po measured after 4 hrs in presence of 40 mg/kg TMZ by Western blotting analysis; format: functional, organism-based; conditions: U-87MG ATCC, dose 1.5-3 mg/kg
[38] = Half-life in Sprague-Dawley rat at 25 mg/kg, po measured upto 24 hrs by LC-MS/MS method; format: ADME, organism-based; conditions: in vivo

In the case of O=C(O)[C@@H]1[C@H](C(=O)n2ccc3ccccc32)[C@H]2CC[C@@H]1O2, the Activity [1] is reported as “Active”, the Tmax [2] is reported as 1.17 h and the Activity [3] is reported as “Active”. The Activity [4] was “Non-Toxic”, the Activity [5] was “Active” and the IC50 [6] was 26.5 µM. The Tmax [7] was 1.2 min, the Activity [8] was “Non-Toxic” and the solubility [9] was 552 µg/mL (≈ 1930 µM). The inhibition in vivo at 3 mg/kg [10] was 87.7%, the Activity [11] was “Non-Toxic” and the Activity [12] was “Active”. For the same compound, the MRT inf [13] was 5.52 h, the remaining at 24 h [14] was 92% and the Activity [15] was “Active”. For the same compound, the Activity [16] was 72.2%, the remaining at 4 h [17] was 99.8% and the Activity [18] was “Active”. The inhibition in vivo at 1.5 mg/kg [19] was 70.9%, the Activity [20] was “Non-Toxic” and the Ratio IC50 [21] was 21.4. The remaining at 24 h [22] was 96%, the clearance [23] was 6.3 mL/min/kg and the Activity [24] was “Non-Toxic”. For the same compound, the remaining at 24 h [25] was 98.3%, the IC50 [26] was 19.8 µM and the MRT inf [27] was 5 h. The Activity [28] was “Active”, the AUC(0-inf) [29] was 54400 ng·h/mL and the Activity [30] was “Active”. The Activity [31] was “Active”, the IC50 [32] was 69.6 µM and the bioavailability [33] was 82%. The Activity [34] was “Active”, the IC50 at 48 h [35] was > 200 µM and the Activity [36] was “Active”. For the same compound, the Activity [37] was “Active” and the half-life [38] was 3.94 h.
